Reference: US20110009332A1, “Therapeutic Treatment Of Wounds” (SOUTHWEST RESEARCH INSTITUTE, priority 2009, published 2011)
Where a SMILES comes first, the peptide text is derived from it. The star is where a group is joined. Cbz = O=C(OCc1ccccc1)*; OtBu = CC(C)(C)O*

Experiments:
20S proteasomes = 20S proteasomes (Homo sapiens, UniProt P28074); experiment: Inhibition of 20S proteasome enzyme activity; type: biochemical; settings: 0 nM to 10,000 nM, FIGS. 7-9
Procedure: The IC50 may be understood as the amount of a particular substance/molecule needed to inhibit a given biological process in vitro by 50% and may be an indicator of the potency of a compound. The activity of the proteasome may be quantified by measuring the amount of fluorescence produced by cleavage of a fluorogenic substrate, such as LLVY-AMC, which when released by proteasomal cleavage, may emit fluorescent light.
The enzyme activity of 20S proteasomes was measured upon increasing addition of the proteasome inhibitors PS-1, curcumin and genestein in concentrations ranging from 0 nM to 10,000 nM. In particular, FIG. 7 illustrates the inhibition of 20S proteasomes upon the addition of PS-1. […] FIG. 8 illustrates the inhibition of the 20S proteasomes upon the addition of curcumin. […] FIG. 9 illustrates the inhibition of the 20S proteasomes upon the addition of genestein.

TGF-β1 = TGF-β1 gene expression (qPCR, normalized over 18S) in human dermal fibroblasts; type: cell-based
Procedure: An examination of gene expression of TFG-β1 was conducted using a number of proteasome inhibitors including, proteasome inhibitor-1, curcumin, MG-132 and bortezomib. Human neonatal dermal fibroblasts (AllCells, Catalog No. HN006001) were maintained in Dulbecco's modified Eagle's medium (DMEM) supplemented with 10% fetal bovine serum. Early passage cells were plated at 2×10^4 cells/cm^2 and grown in humidified 5% CO2 at 37° C. for 24 hours. Spent media was replaced the following day with assay media including Proteasome inhibitor-1 was added in DMEM at 1 μM and 0.1 μM. Untreated cells were used as the control group. For the human osteogenesis PCR array, the experimental group was treated only at 1 μM. In addition, in separate trials, spent media was replace by assay media of curcumin added in DMEM at 10 μM and 100 μM, MG-132 in DMEM at 0.1 μM and 1 μM, and bortezomib in DMEM at 0.1 μm and 1 μM.
Phenol-chloroform extraction was performed to isolate the total RNA for real time polymerase chain reaction array. More specifically, the total RNA was prepared using TRI REAGENT (Ambion, product number 9738), wherein the total RNA was obtained from the human neonatal dermal fibroblasts. Note that isolation was performed as per the instructions provided with the TRI REAGENT. The RNA was used for subsequent quantitative polymerase chain reaction (qPRC) gene expression of TFG-β1 measured using hydrolysis probes (TAQMAN probes available from Applied Biosystems) as described further below.
Concentration and integrity of the obtained total RNA was assessed by absorbance in a spectrophotometer at 260 nm and 280 nm and by electrophoresis in 1% agarose with formaldehyde loading dye. For TAQMAN gene expression assays, cDNA was synthesized from 2 μg of total RNA using the High Capacity cDNA Reverse Transcription Kit (Applied Biosystems, product number 4368814), again following the protocol supplied with the kit. The resulting cDNA was diluted 1:10.
For TAQMAN gene expression, gene-specific fluorescent labeled TAQMAN primers for FAM-TFG-β1 (Applied Biosystems, product number Hs00998130.m1) and TAQMAN reference VIC-18S ribosomal RNA (Applied Biosystems, product number 4310893E) were used to target the gene of interest. A cocktail of universal master mix (Applied Biosystems, product number 4369016) was prepared individually for both set of primers which contained Taq Polymerase, dNTPs, and buffer. Template cDNA's were added separately to respective individual wells in triplicate samples. PCR was performed on StepOne Plus Real Time System instrument (Applied Biosystems). The amplification program consisted of 1 cycle of 95° C. with 10 minute hold (hot start) followed by 50 cycles of 95° C. with 15 second annealing hold and 1 minute 60° C. specified acquisition hold.
For human osteogenisis PCR array, total RNA was prepared using silica matrix purification using RNEASY MINI KIT (Qiagen, product number 74101) according to the manufacturer's recommendations. cDNA was synthesized from 1 μg of purified DNA-free RNA accordingly to RT^2First Strand Kit (SABiosciences, C-03). The resulting cDNA was diluted 1:30 and amplified. The procedure for the PCR array using real-time PCR is based on the RT^2 Profiler PCR array system instructions for Human Osteogenesis (SABiosciences, product number PAHS-026C). A cocktail reaction mix was setup as recommended by the PCR manufacturer (SABiosceiences, product number PA-012). PCR was performed using the same temperature parameters as used with the StepOne Plus Real Time System instrument. The Ct value of endogenous reference gene (i.e. 18s) was used to control for input RNA and then used to normalize target gene (i.e. TFG-β1) tested from the same cDNA sample ([…]), and then calibrated to an internal reference sample ([…]). Change in gene expression was determined by the expression 2̂-([…]). […]

[1] = 0.1 μM inhibitor, FIG. 30, non-treated 1.50 (MG132) / 1.43 (bortezomib)
[2] = 1 μM inhibitor, FIG. 30, non-treated 1.50 (MG132) / 1.43 (bortezomib)

Compound: CC[C@H](C)[C@H](NC(=O)OCc1ccccc1)C(=O)N[C@@H](CCC(=O)OC(C)(C)C)C(=O)N[C@@H](C)C(=O)N[C@H](C=O)CC(C)C [PS-1, Z-Ile-Glu(OBu^t)-Ala-Leu-H] (Cbz-IE(OtBu)AL-aldehyde)
- enzyme activity of 20S proteasomes with increasing inhibitor concentration (in words) (20S proteasomes): enzyme activity decreased
- TFG-β1/18 mRNA levels (TGF-β1; 0.1 μM PS-1, FIG. 28, nontreated 1.15, decrease relatively statistically insignificant): ~1.03 a.u.
- TFG-β1/18 mRNA levels (TGF-β1; 1.0 μM PS-1, FIG. 28, nontreated 1.15, decrease relatively statistically insignificant): ~1.11 a.u.

Compound: COc1cc(/C=C/C(=O)CC(=O)/C=C/c2ccc(O)c(OC)c2)ccc1O [curcumin]
- enzyme activity of 20S proteasomes with increasing inhibitor concentration (in words) (20S proteasomes): shown to decrease as well
- TFG-β1/18 mRNA levels (TGF-β1; 10 μM curcumin, FIG. 29, non-treated 1.15): 0.644 a.u.
- TFG-β1/18 mRNA levels (TGF-β1; 100 μM curcumin, FIG. 29, non-treated 1.15): 1.53 a.u.

Compound: CC(C)C[C@H](NC(=O)[C@H](Cc1ccccc1)NC(=O)c1cnccn1)B(O)O [bortezomib]
- TFG-β1/18 mRNA levels (TGF-β1; [1]): 1.99 a.u.
- TFG-β1/18 mRNA levels (TGF-β1; [2]): 1.97 a.u.

Compound: CC(C)C[C@@H](C=O)NC(=O)[C@H](CC(C)C)NC(=O)[C@H](CC(C)C)NC(=O)OCc1ccccc1 [MG132] (Cbz-Leu-Leu-Leu-aldehyde)
- TFG-β1/18 mRNA levels (TGF-β1; [1]): 2.12 a.u.
- TFG-β1/18 mRNA levels (TGF-β1; [2]): 1.49 a.u.
